Reference: PubChem BioAssay (NCI)
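Dose response: 5 concentrations. Exposure: 48 h. Format: 96-well plates. Endpoint: linear interpolation; highest concentration if not reached. GI50 is the concentration that inhibits growth by half. At the TGI there is no net growth.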

What was measured:
Assay in all cases: NCI anticancer screen, dose series, 48 h
[1] = tested on: MCF7 breast
[2] = tested on: SW-620 colon
[3] = tested on: SR leukemia
[4] = tested on: OVCAR-5 ovarian
[5] = tested on: KM12 colon
[6] = tested on: EKVX NSCLC
[7] = tested on: PC-3 prostate
[8] = tested on: MOLT-4 leukemia
[9] = tested on: RPMI-8226 leukemia
[10] = tested on: K-562 leukemia
[11] = tested on: SF-295 CNS
[12] = tested on: MALME-3M melanoma
[13] = tested on: OVCAR-3 ovarian
[14] = tested on: HCC-2998 colon
[15] = tested on: SK-MEL-5 melanoma
[16] = tested on: NCI-H226 lung
[17] = tested on: UO-31 renal
[18] = tested on: HOP-62 NSCLC
[19] = tested on: HS 578T breast
[20] = tested on: SNB-19 CNS
[21] = tested on: DU-145 prostate
[22] = tested on: OVCAR-8 ovarian
[23] = tested on: HCT-116 colon
[24] = tested on: NCI-H522 lung
[25] = tested on: T-47D breast
[26] = tested on: ACHN renal
[27] = tested on: SF-268 CNS
[28] = tested on: SK-OV-3 ovarian
[29] = tested on: SF-539 CNS
[30] = tested on: BT-549 breast
[31] = tested on: UACC-257 melanoma
[32] = tested on: HL-60(TB) leukemia
[33] = tested on: NCI/ADR-RES ovarian
[34] = tested on: TK-10 renal
[35] = tested on: CAKI-1 renal
[36] = tested on: HCT-15 colon
[37] = tested on: NCI-H460 lung
[38] = tested on: IGROV1 ovarian
[39] = tested on: MDA-MB-231 breast
[40] = tested on: U251 CNS
[41] = tested on: COLO 205 colon
[42] = tested on: 786-0 renal
[43] = tested on: SK-MEL-2 melanoma
[44] = tested on: UACC-62 melanoma
[45] = tested on: HT29 colon
[46] = tested on: A498 renal
[47] = tested on: A549 NSCLC
[48] = tested on: M14 melanoma
[49] = tested on: RXF 393 renal
[50] = tested on: MDA-MB-435
[51] = tested on: SN12C renal
[52] = tested on: NCI-H23 lung
[53] = tested on: OVCAR-4 ovarian
[54] = tested on: SK-MEL-28 melanoma

In the case of `Cc1cc(S(N)(=O)=O)c(S/C(=N\Nc2ccc([N+](=O)[O-])cc2)c2ccc(O)cc2)cc1Cl`, the GI50 [1] is reported as 2190 nM, the TGI [1] is reported as 5.06 µM and the GI50 [2] is reported as 3.54 µM. It also gave a TGI [2] of 11.6 µM, a GI50 [3] of 51.6 µM and a TGI [3] greater than 100 µM. For the same molecule, the GI50 [4] was 2090 nM, the TGI [4] was 4.71 µM and the GI50 [5] was 1960 nM. For the same molecule, the TGI [5] was 4.14 µM, the GI50 [6] was 6.82 µM and the TGI [6] was 22.6 µM. It also gave a GI50 [7] of 3.26 µM, a TGI [7] of 8.55 µM and a GI50 [8] of 2970 nM. It also gave a TGI [8] greater than 100 µM, a GI50 [9] of 1660 nM and a TGI [9] of 4.3 µM. For the same molecule, the GI50 [10] was 2700 nM, the TGI [10] was greater than 100 µM and the GI50 [11] was 2070 nM. It also gave a TGI [11] of 3.92 µM, a GI50 [12] of 1730 nM and a TGI [12] of 4.37 µM. It also gave a GI50 [13] of 2060 nM, a TGI [13] of 4.04 µM and a GI50 [14] of 1650 nM. The TGI [14] was 3.87 µM, the GI50 [15] was 1860 nM and the TGI [15] was 3.38 µM. It also gave a GI50 [16] of 2670 nM, a TGI [16] of 7.08 µM and a GI50 [17] of 5.66 µM. The TGI [17] was 23 µM, the GI50 [18] was 5.02 µM and the TGI [18] was 16.8 µM. It also gave a GI50 [19] of 2920 nM, a TGI [19] of 9.27 µM and a GI50 [20] of 4.46 µM. It also gave a TGI [20] of 16.1 µM, a GI50 [21] of 5.31 µM and a TGI [21] of 23.9 µM. It also gave a GI50 [22] of 5.72 µM, a TGI [22] of 21.7 µM and a GI50 [23] of 2890 nM. The TGI [23] was 10.6 µM, the GI50 [24] was 6.07 µM and the TGI [24] was 43.5 µM. For the same molecule, the GI50 [25] was 2540 nM, the TGI [25] was 6.64 µM and the GI50 [26] was 3.09 µM. It also gave a TGI [26] of 12.9 µM, a GI50 [27] of 2220 nM and a TGI [27] of 8.19 µM. For the same molecule, the GI50 [28] was 4.32 µM, the TGI [28] was 18.4 µM and the GI50 [29] was 3.39 µM. The TGI [29] was 8.74 µM, the GI50 [30] was 7.68 µM and the TGI [30] was 22.7 µM. The GI50 [31] was 5.22 µM, the TGI [31] was 19.3 µM and the GI50 [32] was 1980 nM. The TGI [32] was greater than 100 µM, the GI50 [33] was 2640 nM and the TGI [33] was 8.57 µM. For the same molecule, the GI50 [34] was 2010 nM, the TGI [34] was 5.16 µM and the GI50 [35] was 2300 nM. For the same molecule, the TGI [35] was 5.22 µM, the GI50 [36] was 3.54 µM and the TGI [36] was 23.2 µM. For the same molecule, the GI50 [37] was 2940 nM, the TGI [37] was 10.1 µM and the GI50 [38] was 4.62 µM. It also gave a TGI [38] of 19.9 µM, a GI50 [39] of 1780 nM and a TGI [39] of 4.67 µM. It also gave a GI50 [40] of 2870 nM, a TGI [40] of 11.1 µM and a GI50 [41] of 4.21 µM. For the same molecule, the TGI [41] was 17.6 µM, the GI50 [42] was 3.8 µM and the TGI [42] was 13.5 µM. It also gave a GI50 [43] of 3.9 µM, a TGI [43] of 53.3 µM and a GI50 [44] of 1790 nM. It also gave a TGI [44] of 3.84 µM, a GI50 [45] of 3.29 µM and a TGI [45] of 7.35 µM. It also gave a GI50 [46] of 7.56 µM, a TGI [46] of 20.5 µM and a GI50 [47] of 4.06 µM. For the same molecule, the TGI [47] was 29.6 µM, the GI50 [48] was 2610 nM and the TGI [48] was 7.15 µM. It also gave a GI50 [49] of 676 nM, a TGI [49] of 3.5 µM and a GI50 [50] of 1800 nM. It also gave a TGI [50] of 3.44 µM, a GI50 [51] of 2380 nM and a TGI [51] of 5.29 µM. For the same molecule, the GI50 [52] was 2420 nM, the TGI [52] was 7.54 µM and the GI50 [53] was 3.43 µM. It also gave a TGI [53] of 7.94 µM, a GI50 [54] of 2620 nM and a TGI [54] of 5.73 µM.
